Reference: patent US7989165B2, “Tape stripping methods for analysis of skin disease and pathological skin state” (DermTech International, priority 2004, dated 2011)
“And” between values parts separate entries of the source, which are not always exact repeats. Identical values can stand only once.

Assays:
Type in all cases: in vivo, human
GAPDH mRNA = assay: RT-PCR of GAPDH mRNA in tape-stripped psoriatic lesions during Enbrel treatment; conditions: week 8 of treatment
Protocol: (§1) Patients were treated with Enbrel™ (Etanercept) over a period of months. Both before treatment commenced (week 0) and at various time points during treatment, a lesion was tape stripped using the synthetic rubber-based adhesive MA70 (Adhesives Research) on a polyurethane film. Adhesive strips were manufactured as circles of 17 mm diameter. Skin sites were sequentially stripped with 4 individual tapes, with each tape applied and removed once. The RNA isolated from the adherent cells on all 4 tapes (from one site) was pooled into one sample. Quantitation was by quantitative RT-PCR using the comparative method with β-actin mRNA as the internal normalizing mRNA standard and calibration achieved by using population average values for ΔCt in uninvolved skin of psoriatic subjects (Table 1).

psoriasis = assay: Clinical assessment of psoriasis (NPF Score) during Enbrel treatment; parameters: NPF Score: scale not given here
Protocol: as §1
Rather than calibrate the lesion samples to uninvolved skin of each patient, we have chosen to calibrate to population average values to gain a fold-change relative to non-psoriatic skin. The results of calibrating to each patient's uninvolved skin values were virtually identical (data not shown). […] Thus, positive changes in ΔCt values of these specific mRNAs are negatively correlated with the change from baseline at week 8 in NPF scores. […] In order to assess the significance this observation, the AC, and NPF data in Table 10 was analyzed.

IL-12B mRNA = assay: RT-PCR of IL-12B mRNA in tape-stripped psoriatic lesions during Enbrel treatment; conditions: week 8 of treatment
Protocol: as §1

IFNγ mRNA = assay: RT-PCR of IFNγ mRNA in tape-stripped psoriatic lesions during Enbrel treatment; conditions: week 8 of treatment
Protocol: as §1

TNFα mRNA = assay: RT-PCR of TNFα mRNA in tape-stripped psoriatic lesions during Enbrel treatment; conditions: week 8 of treatment
Protocol: as §1

IL-23A mRNA = assay: RT-PCR of IL-23A mRNA in tape-stripped psoriatic lesions during Enbrel treatment; conditions: week 8 of treatment
Protocol: as §1

[1] = psoriatic lesion, tape-harvested RNA, relative to β-actin mRNA, one value per patient (P2-P7)

Enbrel was tested, and the “Fold Change (Pop-UIS), GAPDH mRNA” value (GAPDH mRNA; GAPDH/β-actin mRNA ratio in lesion relative to population average of uninvolved skin, per patient) was 2.04 fold and 1.69 fold and 1.59 fold and 1.40 fold and 1.77 fold and 2.07 fold, the “ΔCt (Lesion), GAPDH mRNA” value (GAPDH mRNA; [1]) was 1.04 and 1.31 and 1.4 and 1.58 and 1.25 and 1.02 and the “NPF Score” value (psoriasis; National Psoriasis Foundation Score at week 8 of treatment, one value per patient (P2-P7)) was 10.7 (5×) and 10.3 (5×) and 16.7 (5×) and 18.7 (5×) and 11.7 (5×) and 12 (5×). The “change in NPF score from baseline to week 8” value (psoriasis; psoriatic patients, 8 weeks of treatment, negative indicates improvement in disease) was “negative”, the “Fold Change (Pop-UIS), IL-12B mRNA” value (IL-12B mRNA; IL-12B/β-actin mRNA ratio in lesion relative to population average of uninvolved skin, per patient) was 0.51 fold and 9.45 fold and 5.31 fold and 11.24 fold and 27.86 fold and 105.42 fold and the “ΔCt (Lesion), IL-12B mRNA” value (IL-12B mRNA; [1]) was 12.48 and 7.35 and 9.09 and >8.01 and 6.7 and 4.78. The “Fold Change (Pop-UIS), INFγ mRNA” value (IFNγ mRNA; INFγ/β-actin mRNA ratio in lesion relative to population average of uninvolved skin, per patient) was 0.59 fold and 48.17 fold and 1.49 fold and 8.17 fold and 2.58 fold and 3.25 fold, the “ΔCt (Lesion), INFγ mRNA” value (IFNγ mRNA; [1]) was 11.27 and 4.91 and 9.92 and 7.47 and 9.13 and 8.8 and the “Fold Change (Pop-UIS), TNFα mRNA” value (TNFα mRNA; TNFα/β-actin mRNA ratio in lesion relative to population average of uninvolved skin, per patient) was 10.06 fold and 16.56 fold and 5.66 fold and 9.00 fold and 11.47 fold and 17.27 fold. The “ΔCt (Lesion), TNFα mRNA” value (TNFα mRNA; [1]) was 4.99 and 4.27 and 5.82 and 5.15 and 4.8 and 4.21, the “Fold Change (Pop-UIS), IL-23A mRNA” value (IL-23A mRNA; IL-23A/β-actin mRNA ratio in lesion relative to population average of uninvolved skin, per patient) was 5.43 fold and 24.25 fold and 5.70 fold and 9.99 fold and 17.03 fold and 18.64 fold and the “ΔCt (Lesion), IL-23A mRNA” value (IL-23A mRNA; [1]) was 6.59 and 4.85 and 6.52 and 5.71 and 4.94 and 4.81.
